# Test results from ChEMBL document CHEMBL5532664, “Discovery, Optimization, and Evaluation of Potent and Selective DNA-PK Inhibitors in Combination with Chemotherapy or Radiotherapy for the Treatment of Malignancies” (J Med Chem, 2024).
# Active and inactive are the calls of the source. The calls are words filed in the database; no cut-off is given here.
# Assays:
# HCT-116 [1] = test: Inhibition of colony formation in human HCT-116 cells at […] preincubated with compound for 1 hr followed by exposure to 2 Gy gamma irradiation and measured after 7 days by crystal violet staining based chemiluminescence assay relative to control; type: functional; settings: HCT-116, light or radiation study, dose 0.25 µM, time 169 hrs
# HCT-116 [2] = test: Inhibition of colony formation in human HCT-116 cells preincubated with compound for 1 hr followed by exposure to 2 Gy gamma irradiation and measured after 7 days by crystal violet staining based chemiluminescence assay; type: functional, cell-based; settings: HCT-116, light or radiation study
# HCT-116 [3] = test: Inhibition of bleomycin-induced DNA-double stranded breaks in human HCT-116 cells assessed as reduction in gammaH2AX level pretreated for 1 hrs followed by bleomycin addition and measured after 6 hrs Western blot analysis; type: functional, cell-based; settings: dose 0.03-30 µM, time 7.0 hrs
# HCT-116 [4] = test: Induction of cell cycle arrest in human HCT-116 cells assessed as accumulation of cells G0/G1 phase at 250 nM (reference value: 66.45%); type: functional
# HCT-116 [5] = test: Induction of cell cycle arrest in human HCT-116 cells assessed as accumulation of cells G0/G1 phase at 500 nM (reference value: 66.45%); type: functional
# HCT-116 [6] = test: Induction of cell cycle arrest in human HCT-116 cells assessed as accumulation of cells G0/G1 phase at 1000 nM (reference value: 66.45%); type: functional
# HCT-116 [7] = test: Induction of cell cycle arrest in human HCT-116 cells assessed as accumulation of cells G0/G1 phase at 2000 nM (reference value: 66.45%); type: functional
# HCT-116 [8] = test: Induction of cell cycle arrest in human HCT-116 cells assessed as accumulation of cells G2/M phase at 250 nM (reference value: […]%); type: functional
# HCT-116 [9] = test: Induction of cell cycle arrest in human HCT-116 cells assessed as accumulation of cells G2/M phase at 500 nM (reference value: […]%); type: functional
# HCT-116 [10] = test: Induction of cell cycle arrest in human HCT-116 cells assessed as accumulation of cells G2/M phase at 1000 nM (reference value: […]%); type: functional
# HCT-116 [11] = test: Induction of cell cycle arrest in human HCT-116 cells assessed as accumulation of cells G2/M phase at 2000 nM (reference value: […]%); type: functional
# HCT-116 [12] = test: Induction of cell cycle arrest in human HCT-116 cells assessed as accumulation of cells S phase at 250 nM (reference value: 19.72%); type: functional
# HCT-116 [13] = test: Induction of cell cycle arrest in human HCT-116 cells assessed as accumulation of cells S phase at 500 nM (reference value: 19.72%); type: functional
# HCT-116 [14] = test: Induction of cell cycle arrest in human HCT-116 cells assessed as accumulation of cells S phase at 1000 nM (reference value: 19.72%); type: functional
# HCT-116 [15] = test: Induction of cell cycle arrest in human HCT-116 cells assessed as accumulation of cells S phase at 2000 nM (reference value: 19.72%); type: functional
# HCT-116 [16] = test: Induction of cell cycle arrest in human HCT-116 cells assessed as accumulation of cells G0/G1 phase at 250 nM incubated for 1 hr followed by exposure to 2 Gy gamma irradiation and measured after 48 hrs propidium iodide staining based analysis (reference value: 60.01%); type: functional; settings: time 49 hrs
# HCT-116 [17] = test: Induction of cell cycle arrest in human HCT-116 cells assessed as accumulation of cells G0/G1 phase at 500 nM incubated for 1 hr followed by exposure to 2 Gy gamma irradiation and measured after 48 hrs propidium iodide staining based analysis (reference value: 60.01%); type: functional; settings: time 49 hrs
# HCT-116 [18] = test: Induction of cell cycle arrest in human HCT-116 cells assessed as accumulation of cells G0/G1 phase at 1000 nM incubated for 1 hr followed by exposure to 2 Gy gamma irradiation and measured after 48 hrs propidium iodide staining based analysis (reference value: 60.01%); type: functional; settings: time 49 hrs
# HCT-116 [19] = test: Induction of cell cycle arrest in human HCT-116 cells assessed as accumulation of cells G0/G1 phase at 2000 nM incubated for 1 hr followed by exposure to 2 Gy gamma irradiation and measured after 48 hrs propidium iodide staining based analysis (reference value: 60.01%); type: functional; settings: time 49 hrs
# HCT-116 [20] = test: Induction of cell cycle arrest in human HCT-116 cells assessed as accumulation of cells G2/M phase at 250 nM incubated for 1 hr followed by exposure to 2 Gy gamma irradiation and measured after 48 hrs propidium iodide staining based analysis (reference value: 18.65%); type: functional; settings: time 49 hrs
# HCT-116 [21] = test: Induction of cell cycle arrest in human HCT-116 cells assessed as accumulation of cells G2/M phase at 500 nM incubated for 1 hr followed by exposure to 2 Gy gamma irradiation and measured after 48 hrs propidium iodide staining based analysis (reference value: 18.65%); type: functional; settings: time 49 hrs
# HCT-116 [22] = test: Induction of cell cycle arrest in human HCT-116 cells assessed as accumulation of cells G2/M phase at 1000 nM incubated for 1 hr followed by exposure to 2 Gy gamma irradiation and measured after 48 hrs propidium iodide staining based analysis (reference value: 18.65%); type: functional; settings: time 49 hrs
# HCT-116 [23] = test: Induction of cell cycle arrest in human HCT-116 cells assessed as accumulation of cells G2/M phase at 2000 nM incubated for 1 hr followed by exposure to 2 Gy gamma irradiation and measured after 48 hrs propidium iodide staining based analysis (reference value: 18.65%); type: functional; settings: time 49 hrs
# HCT-116 [24] = test: Induction of cell cycle arrest in human HCT-116 cells assessed as accumulation of cells S phase at 250 nM incubated for 1 hr followed by exposure to 2 Gy gamma irradiation and measured after 48 hrs propidium iodide staining based analysis (reference value: 21.35%); type: functional; settings: time 49 hrs
# HCT-116 [25] = test: Induction of cell cycle arrest in human HCT-116 cells assessed as accumulation of cells S phase at 500 nM incubated for 1 hr followed by exposure to 2 Gy gamma irradiation and measured after 48 hrs propidium iodide staining based analysis (reference value: 21.35%); type: functional; settings: time 49 hrs
# HCT-116 [26] = test: Induction of cell cycle arrest in human HCT-116 cells assessed as accumulation of cells S phase at 1000 nM incubated for 1 hr followed by exposure to 2 Gy gamma irradiation and measured after 48 hrs propidium iodide staining based analysis (reference value: 21.35%); type: functional; settings: time 49 hrs
# HCT-116 [27] = test: Induction of cell cycle arrest in human HCT-116 cells assessed as accumulation of cells S phase at 2000 nM incubated for 1 hr followed by exposure to 2 Gy gamma irradiation and measured after 48 hrs propidium iodide staining based analysis (reference value: 21.35%); type: functional; settings: time 49 hrs
# NCI-H460 = test: Antitumor activity against human NCI-H460 cells xenografted in BALB/ c nude mouse assessed as inhibition of tumor growth at 100 mg/kg, po administered once daily with 2 Gy irradiation and measured upto 7 days by vernier caliper analysis; type: functional, organism-based; settings: time <= 7.0 day
# A549 [28] = test: Antitumor activity against human A549 cells xenografted in BALB/c nude mouse assessed as tumor growth inhibition at 7.5 mg/kg, po administered once daily measured upto 26 days in presence of paclitaxel by vernier caliper analysis relative to control; type: functional; settings: A549, 624 h, time <= 26 day, read-out: TGI
# BT-474 = test: Antitumor activity against human BT-474 cells xenografted in BALB/c nude mouse assessed as inhibition of tumor growth at 0.25 to 12.5 mg/kg, po measured upto 10 days in presence of liposome doxorubicin by vernier caliper analysis; type: functional, organism-based; settings: dose lower […], dose upper 12.5 mg/kg, time <= 10.0 day
# A549 [29] = test: Antitumor activity against human A549 cells xenografted in BALB/c nude mouse assessed as tumor growth inhibition at 15 mg/kg, po administered once daily measured upto 26 days in presence of paclitaxel by vernier caliper analysis relative to control; type: functional; settings: A549, 624 h, time <= 26 day, read-out: TGI
# [30] = Toxicity in BALB/c nude mouse assessed as effect on body weight loss at 15 mg/kg, po measured upto 28 days […]; type: organism-based; settings: in vivo, 672 h, time < 28 day
# [31] = rat, in vivo, po, 5 mg/kg, 24 h
# in vivo [32] = settings: Sprague-Dawley, rat, iv, 5 mg/kg
# in vivo [33] = settings: Sprague-Dawley, rat, po, 5 mg/kg
# in vivo [34] = settings: Sprague-Dawley, rat, iv, 5 mg/kg; remark: listed apart in the source
# in vivo [35] = settings: Sprague-Dawley, rat, po, 5 mg/kg; remark: listed apart in the source
smiles,measurement,setting,value
Cc1cc(-c2cnn(C)c2)ncc1Nc1ncc2c(n1)n(C1CCOCC1)c(=O)n2C,inhibition at […],HCT-116 [1],99.4%
same,IC50,HCT-116 [2],33.3 nM
same,inhibition,HCT-116 [3],Dose-Dependent Effect
same,Activity,HCT-116 [4],65.15%
same,Activity,HCT-116 [5],60.76%
same,Activity,HCT-116 [6],61.36%
same,Activity,HCT-116 [7],60.62%
same,Activity,HCT-116 [8],15.81%
same,Activity,HCT-116 [9],15.5%
same,Activity,HCT-116 [10],14.91%
same,Activity,HCT-116 [11],16.46%
same,Activity,HCT-116 [12],19.94%
same,Activity,HCT-116 [13],23.44%
same,Activity,HCT-116 [14],21.75%
same,Activity,HCT-116 [15],22.92%
same,Activity,HCT-116 [16],53.41%
same,Activity,HCT-116 [17],45.35%
same,Activity,HCT-116 [18],32.64%
same,Activity,HCT-116 [19],24.76%
same,Activity,HCT-116 [20],21.65%
same,Activity,HCT-116 [21],30.99%
same,Activity,HCT-116 [22],53.54%
same,Activity,HCT-116 [23],69.21%
same,Activity,HCT-116 [24],22.74%
same,Activity,HCT-116 [25],25.63%
same,Activity,HCT-116 [26],13.82%
same,Activity,HCT-116 [27],9.03%
same,Activity,NCI-H460,Active
same,inhibition in vivo at 7.5 mg/kg,A549 [28],78.8%
same,Activity,BT-474,Active
Cc1cc2ncnn2cc1Nc1ncc2c(n1)n(C1CCOCC1)c(=O)n2C [AZD-7648],inhibition at […],HCT-116 [1],98.2%
same,IC50,HCT-116 [2],38.1 nM
same,Activity,NCI-H460,Active
same,inhibition in vivo at 15 mg/kg,A549 [29],46.1%
same,Activity,[30],Non-Toxic
same,AUCt,[31],2458.98 µg·h/L
same,AUC(0-t) at 24 h,in vivo [32],3150 ng·h/mL
same,Cmax at 24 h,in vivo [33],836 ng/mL
same,Cmax at 24 h,in vivo [34],2620 ng/mL
same,bioavailability at 24 h,in vivo [35],78.1%
